Laboratory results published in patent US20250276953A1, “SMALL MOLECULE SIRTUIN INHIBITORS AND USES THEREOF” (The Regents of the University of Michigan, priority 2022, published 2025).

How the values were obtained:
SIRT5 [1] = target: T1, SIRT5 (Homo sapiens (Human), UniProt Q9NXA8); experiment: SIRT5 IC50 (Table I); format: biochemical
[2] = test system: Ewing sarcoma cell line A673; experiment: Growth inhibition of Ewing sarcoma cell line A673; format: cell-based
[3] = test system: Ewing sarcoma cell line A4573; experiment: Growth inhibition of Ewing sarcoma cell line A4573; format: cell-based
SIRT5 [4] = target: T1, SIRT5; experiment: Degradation of SIRT5 protein; format: cell-based

T1 sequence (Q9NXA8 37-310): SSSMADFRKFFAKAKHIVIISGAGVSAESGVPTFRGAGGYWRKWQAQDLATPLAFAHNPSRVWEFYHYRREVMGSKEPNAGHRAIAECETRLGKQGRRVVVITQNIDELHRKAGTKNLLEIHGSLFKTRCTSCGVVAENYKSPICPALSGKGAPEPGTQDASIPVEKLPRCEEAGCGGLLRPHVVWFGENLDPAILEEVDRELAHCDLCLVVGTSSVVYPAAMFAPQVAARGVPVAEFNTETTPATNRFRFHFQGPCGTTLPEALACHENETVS

Compound CC(=O)Nc1ccc(-c2csc(Nc3ccc(C(=O)O)c(O)c3)n2)cc1 [Compound 1-1, 4-((4-(4-acetamidophenyl)thiazol-2-yl)amino)-2-hydroxybenzoic acid] has an IC50 (SIRT5 [1]) of 26.4 ± 0.83 µM.

In the case of CCOC(=O)c1ccc(Nc2nc(-c3ccc(NC(C)=O)cc3)cs2)cc1O [Compound 1-2, Ethyl 4-((4-(4-acetamidophenyl)thiazol-2-yl)amino)-2-hydroxybenzoate], the “growth of Ewing sarcoma cells” value [2] is reported as “inhibited growth” and the “growth of Ewing sarcoma cells” value [3] is reported as “inhibited growth”.

With CCOC(=O)c1ccc(Nc2nc(-c3ccc(NC(=O)CCCCNC(=O)COc4cccc5c4C(=O)N(C4CCC(=O)NC4=O)C5=O)cc3)cs2)cc1O (stereo not shown) [Compound 1-3, ethyl 4-((4-(4-(5-(2-((2-(2,6-dioxopiperidin-3-yl)-1,3-dioxoisoindolin-4-yl)oxy)acetamido)pentanamido)phenyl)thiazol-2-yl)amino)-2-hydroxybenzoate] the “growth of Ewing sarcoma cells” value [2] was “inhibited growth”, the “growth of Ewing sarcoma cells” value [3] was “inhibited growth” and the “degradation of protein SIRT5” value (SIRT5 [4]) was “degraded”.

CC(=O)Nc1ccc(-c2csc(NC(=S)Nc3ccc(C(=O)O)c(O)c3)n2)cc1 [Compound 1-5, 4-(3-(4-(4-acetamidophenyl)thiazol-2-yl)thioureido)-2-hydroxybenzoic acid] gave an IC50 (SIRT5 [1]) of 12.4 ± 0.58 µM.

With CC(=O)Nc1ccc(-c2csc(NC(=S)Nc3ccc(C(=O)O)cc3)n2)cc1 [Compound 1-7, 4-(3-(4-(4-acetamidophenyl)thiazol-2-yl)thioureido)benzoic acid] the IC50 (SIRT5 [1]) was 101 ± 8.48 µM.

In the case of CC(=O)Nc1ccc(-c2csc(NC(=S)Nc3ccc(O)c(C(=O)O)c3)n2)cc1 [Compound 1-8, 5-(3-(4-(4-acetamidophenyl)thiazol-2-yl)thioureido)-2-hydroxybenzoic acid], the IC50 (SIRT5 [1]) is reported as 55.9 ± 5.42 µM.

Compound CC(=O)Nc1ccc(-c2csc(NC(=S)Nc3ccc(C(=O)O)cc3O)n2)cc1 [Compound 1-9, 4-(3-(4-(4-acetamidophenyl)thiazol-2-yl)thioureido)-3-hydroxybenzoic acid] has an IC50 (SIRT5 [1]) of 50.7 ± 5.64 µM.

Cc1ccc(-c2csc(NC(=S)Nc3ccc(C(=O)O)c(O)c3)n2)cc1 [Compound 1-10, 2-hydroxy-4-(3-(4-(p-tolyl)thiazol-2-yl)thioureido)benzoic acid] showed an IC50 (SIRT5 [1]) of 23.4 ± 0.92 µM.

With Cc1cccc(-c2csc(NC(=S)Nc3ccc(C(=O)O)c(O)c3)n2)c1 [Compound 1-11, 2-hydroxy-4-(3-(4-(m-tolyl)thiazol-2-yl)thioureido)benzoic acid] the IC50 (SIRT5 [1]) was 27.7 ± 1.02 µM.

For Cc1ccccc1-c1csc(NC(=S)Nc2ccc(C(=O)O)c(O)c2)n1 [Compound 1-12, 2-hydroxy-4-(3-(4-(o-tolyl)thiazol-2-yl)thioureido)benzoic acid], the IC50 (SIRT5 [1]) was 34 ± 2.18 µM.

Work on O=C(O)c1ccc(NC(=S)Nc2nc(-c3ccc(F)cc3)cs2)cc1O [Compound 1-13, 4-(3-(4-(4-fluorophenyl)thiazol-2-yl)thioureido)-2-hydroxybenzoic acid] yielded an IC50 (SIRT5 [1]) of 17.3 ± 0.28 µM.

With O=C(O)c1ccc(NC(=S)Nc2nc(-c3cccc(F)c3)cs2)cc1O [Compound 1-14, 4-(3-(4-(3-fluorophenyl)thiazol-2-yl)thioureido)-2-hydroxybenzoic acid] the IC50 (SIRT5 [1]) was 18.3 ± 0.95 µM.

With O=C(O)c1ccc(NC(=S)Nc2nc(-c3ccccc3F)cs2)cc1O [Compound 1-15, 4-(3-(4-(2-fluorophenyl)thiazol-2-yl)thioureido)-2-hydroxybenzoic acid] the IC50 (SIRT5 [1]) was 26.2 ± 2.54 µM.

With O=C(O)c1ccc(NC(=S)Nc2nc(-c3ccc(C(F)(F)F)cc3)cs2)cc1O [Compound 1-16, 2-hydroxy-4-(3-(4-(4-(trifluoromethyl)phenyl)thiazol-2-yl)thioureido)benzoic acid] the IC50 (SIRT5 [1]) was 26.8 ± 1.42 µM.

O=C(O)c1ccc(NC(=S)Nc2nc(-c3cccc(C(F)(F)F)c3)cs2)cc1O [Compound 1-17, 2-hydroxy-4-(3-(4-(3-(trifluoromethyl)phenyl)thiazol-2-yl)thioureido)benzoic acid] was tested, and the IC50 (SIRT5 [1]) was 24.3 ± 2.54 µM.

In the case of COc1ccc(-c2csc(NC(=S)Nc3ccc(C(=O)O)c(O)c3)n2)cc1 [Compound 1-18, 2-hydroxy-4-(3-(4-(4-methoxyphenyl)thiazol-2-yl)thioureido)benzoic acid], the IC50 (SIRT5 [1]) is reported as 29.2 ± 2.88 µM.

COc1cccc(-c2csc(NC(=S)Nc3ccc(C(=O)O)c(O)c3)n2)c1 [Compound 1-19, 2-hydroxy-4-(3-(4-(3-methoxyphenyl)thiazol-2-yl)thioureido)benzoic acid] showed an IC50 (SIRT5 [1]) of 41.6 ± 3.79 µM.

O=C(O)c1ccc(NC(=S)Nc2nc(-c3ccc(O)cc3)cs2)cc1O [Compound 1-20, 2-hydroxy-4-(3-(4-(4-hydroxyphenyl)thiazol-2-yl)thioureido)benzoic acid] was tested, and the IC50 (SIRT5 [1]) was 42.5 ± 3.83 µM.

With O=C(O)c1ccc(NC(=S)Nc2nc(-c3cccc(O)c3)cs2)cc1O [Compound 1-21, 2-hydroxy-4-(3-(4-(3-hydroxyphenyl)thiazol-2-yl)thioureido)benzoic acid] the IC50 (SIRT5 [1]) was 32.8 ± 3.87 µM.

N#Cc1ccc(-c2csc(NC(=S)Nc3ccc(C(=O)O)c(O)c3)n2)cc1 [Compound 1-22, 4-(3-(4-(4-cyanophenyl)thiazol-2-yl)thioureido)-2-hydroxybenzoic acid] showed an IC50 (SIRT5 [1]) of 11.4 ± 0.5 µM.

O=C(O)c1ccc(NC(=S)Nc2nc(-c3ccc([N+](=O)[O-])cc3)cs2)cc1O [Compound 1-23, 2-hydroxy-4-(3-(4-(4-nitrophenyl)thiazol-2-yl)thioureido)benzoic acid] showed an IC50 (SIRT5 [1]) of 4.3 ± 0.3 µM.

In the case of CC(=O)Nc1cccc(-c2csc(NC(=S)Nc3ccc(C(=O)O)c(O)c3)n2)c1 [Compound 1-24, 4-(3-(4-(3-acetamidophenyl)thiazol-2-yl)thioureido)-2-hydroxybenzoic acid], the IC50 (SIRT5 [1]) is reported as 35.6 ± 1.3 µM.

CC(=O)Nc1ccccc1-c1csc(NC(=S)Nc2ccc(C(=O)O)c(O)c2)n1 [Compound 1-25, 4-(3-(4-(2-acetamidophenyl)thiazol-2-yl)thioureido)-2-hydroxybenzoic acid] was tested, and the IC50 (SIRT5 [1]) was 55.6 ± 5.49 µM.

Work on O=C(O)c1ccc(NC(=S)Nc2nc(-c3ccc(Br)cc3)cs2)cc1O [Compound 1-26, 4-(3-(4-(4-bromophenyl)thiazol-2-yl)thioureido)-2-hydroxybenzoic acid] yielded an IC50 (SIRT5 [1]) of 18.6 ± 0.23 µM.

Compound O=C(O)c1ccc(NC(=S)Nc2nc(-c3ccc(Cl)cc3)cs2)cc1O [Compound 1-27, 4-(3-(4-(4-chlorophenyl)thiazol-2-yl)thioureido)-2-hydroxybenzoic acid] has an IC50 (SIRT5 [1]) of 18.4 ± 0.28 µM.

CNS(=O)(=O)c1ccc(-c2csc(NC(=S)Nc3ccc(C(=O)O)c(O)c3)n2)cc1 [Compound 1-28, 2-hydroxy-4-(3-(4-(4-(N-methylsulfamoyl)phenyl)thiazol-2-yl)thioureido)benzoic acid] was tested, and the IC50 (SIRT5 [1]) was 38.8 ± 3.13 µM.

CNS(=O)(=O)c1cccc(-c2csc(NC(=S)Nc3ccc(C(=O)O)c(O)c3)n2)c1 [Compound 1-29, 2-hydroxy-4-(3-(4-(3-(N-methylsulfamoyl)phenyl)thiazol-2-yl)thioureido)benzoic acid] was tested, and the IC50 (SIRT5 [1]) was 26.1 ± 1.91 µM.

O=C(O)c1ccc(NC(=S)Nc2nc(-c3ccc(F)c(F)c3)cs2)cc1O [Compound 1-30, 4-(3-(4-(3,4-difluorophenyl)thiazol-2-yl)thioureido)-2-hydroxybenzoic acid] showed an IC50 (SIRT5 [1]) of 16.1 ± 0.73 µM.

O=C(O)c1ccc(NC(=S)Nc2nc(-c3ccc(F)cc3F)cs2)cc1O [Compound 1-31, 4-(3-(4-(2,4-difluorophenyl)thiazol-2-yl)thioureido)-2-hydroxybenzoic acid] was tested, and the IC50 (SIRT5 [1]) was 19.3 ± 0.93 µM.

For N#Cc1ccc(-c2csc(NC(=S)Nc3ccc(C(=O)O)c(O)c3)n2)cc1F [Compound 1-32, 4-(3-(4-(4-cyano-3-fluorophenyl)thiazol-2-yl)thioureido)-2-hydroxybenzoic acid], the IC50 (SIRT5 [1]) was 12.8 ± 0.48 µM.

For N#Cc1ccc(-c2csc(NC(=S)Nc3ccc(C(=O)O)c(O)c3)n2)c(F)c1 [Compound 1-33, 4-(3-(4-(4-cyano-2-fluorophenyl)thiazol-2-yl)thioureido)-2-hydroxybenzoic acid], the IC50 (SIRT5 [1]) was 14.8 ± 0.81 µM.

O=C(O)c1ccc(NC(=S)Nc2nc(-c3ccc([N+](=O)[O-])cc3F)cs2)cc1O [Compound 1-34, 4-(3-(4-(2-fluoro-4-nitrophenyl)thiazol-2-yl)thioureido)-2-hydroxybenzoic acid] was tested, and the IC50 (SIRT5 [1]) was 23.8 ± 2.71 µM.

O=C(O)c1ccc(NC(=S)Nc2nc(-c3ccc([N+](=O)[O-])c(F)c3)cs2)cc1O [Compound 1-35, 4-(3-(4-(3-fluoro-4-nitrophenyl)thiazol-2-yl)thioureido)-2-hydroxybenzoic acid] gave an IC50 (SIRT5 [1]) of 14.9 ± 1.35 µM.

Work on O=C(O)c1ccc(NC(=S)Nc2nc(-c3ccc(F)c([N+](=O)[O-])c3)cs2)cc1O [Compound 1-36, 4-(3-(4-(4-fluoro-3-nitrophenyl)thiazol-2-yl)thioureido)-2-hydroxybenzoic acid] yielded an IC50 (SIRT5 [1]) of 11.6 ± 0.74 µM.

O=C(O)c1ccc(NC(=S)Nc2nc(-c3ccc(F)c(S(=O)(=O)NC4CCCC4)c3)cs2)cc1O [Compound 1-37, 4-(3-(4-(3-(N-cyclopentylsulfamoyl)-4-fluorophenyl)thiazol-2-yl)thioureido)-2-hydroxybenzoic acid] was tested, and the IC50 (SIRT5 [1]) was 24.9 ± 0.54 µM.

For O=C(O)c1ccc(NC(=S)Nc2nc(-c3ccc(F)c(S(=O)(=O)NCc4ccccc4)c3)cs2)cc1O [Compound 1-38, 4-(3-(4-(3-(N-benzylsulfamoyl)-4-fluorophenyl)thiazol-2-yl)thioureido)-2-hydroxybenzoic acid], the IC50 (SIRT5 [1]) was 8.22 ± 1.3 µM.

Compound O=C(O)c1ccc(NC(=S)Nc2nc(-c3ccc([N+](=O)[O-])c(S(=O)(=O)NCc4ccccc4)c3)cs2)cc1O [Compound 1-39, 4-(3-(4-(3-(N-benzylsulfamoyl)-4-nitrophenyl)thiazol-2-yl)thioureido)-2-hydroxybenzoic acid] has an IC50 (SIRT5 [1]) of 2.5 ± 0.21 µM.
